# From US12391701B2, “Chromene-based compounds, methods and uses thereof” (University of Minho, priority 2019, dated 2025)
# pIC50: −log10 of the molar value. Where two headings read alike, the source gives them in different places.
# Assays:
# Type in all cases: cell-based
# [1] = tested on: breast cancer cell line MCF-7; assay: Cell viability assay (MTS), MCF-7; conditions: Homo sapiens, MCF7; 72 h incubation
# Method: (§1) In an embodiment, the cell growth inhibition and IC50 values of the synthesised and isolated chromene-based compounds were determined as part of the evaluation of the antiproliferative activity of the isolated agents. A complete study on the structure-activity relationship was performed for all the synthesised compounds. The antiproliferative activity against MCF-7 breast cancer cell lines were analysed. […] The non-neoplastic cell line MCF-10A was also used to determine the selectivity of the compounds for the tumour cells. For compounds with an IC50 value (concentration required to reduce cell viability by 50%) higher than 20 μM, the IC50 value was not determined. Selectivity index (SI) was calculated in order to evaluate the cytotoxicity of the tested compounds.
# (§2) In an embodiment, three human breast cancer cell lines Hs578T, MDA-MB-468 and MCF-7, and a normal breast cell line MCF-10A, were obtained from ATCC (American Type Culture Collection). The cancer cell lines were cultured in Dulbecco's modified Eagle medium, 4.5 g/l glucose (DMEM, Gibco) supplemented with 10% heating inactivated Fetal Bovine Serum (FBS, Gibco) and 1% antibiotic solution (Penicillin-Streptomycin, Gibco). The normal cell line was cultured in Dulbecco's Modified Eagle Medium: Nutrient Mixture F-12 (DMEM/F12, Gibco) supplemented with 5% heating inactivated FBS (Gibco), 1% antibiotic solution (Penicillin-Streptomycin, Gibco), 1% steroid hormone (Hydrocortisone, Sigma-Aldrich), 0.1% peptide hormone (Insulin, Sigma-Aldrich) and 0.01% protein complex (Cholera Toxin, Gibco). Two distinct human acute myeloid leukemia (AML) cell lines, HL-60 (FAB M2) and KG-1 (erythroleukemia-FAB M6), and one human lymphoblastic leukemia (ALL) cell line, Jurkat (T cell type), were also used. These three cell lines were obtained from German Collection of Microorganisms and Cell cultures (DMSZ®, Deutsche Sammlung von Mikroorganismen and Zellkulturen in German). Cells were cultured in RPMI 1640 medium (Biochrom®-Merck Millipore) supplemented with 10% heating inactivated FBS (Biochrom®-Merck Millipore) and 1% antibiotic/antimitotic mixture (Invitrogen®). Three human glioblastoma (GBM) cell line models, two established and commercially available cell lines (U87MG and GAMG, kind gift from Rui M. Reis) and one primary GBM culture (GLIB) were also used. GBM cells were cultures in DMEM (Biochrom-Merck Millipore), all supplemented with 10% FBS. The Renal cell carcinoma cell lines A498, 786-O, Caki-2 and HK2 were obtained from ATCC. The cancer cell line A498 was cultured in MEM medium (Biochrom®-Merck Millipore), 786-O was cultured in RPMI 1640 medium (Biochrom®-Merck Millipore), Caki-2 was cultured in Mc Coys medium (Biochrom®-Merck Millipore) and HK2 was cultured in RPMI 1640 medium (Biochrom®-Merck Millipore). All the media were supplemented with 10% heat inactivated FBS (Biochrom®-Merck Millipore) and 1% antibiotic/antimitotic mixture (Invitrogen®). All cells were grown in a humidified incubator at 37° C. and 5% CO2. For all assays, DMSO (Dimethyl Sulfoxide, Sigma-Aldrich) controls were used.
# (§3) In an embodiment, cell viability assays were performed. MCF-7, Hs578T and MCF-10A cells were plated in triplicate in 96-multiwell culture plates, at 3000 cells […], or 5000 cells […] for MDA-MB-468 (100 μL/well). The cells were then allowed to adhere in complete medium, over a period of 18-20 hours. Cells were subsequently treated with 7 different concentrations (from 0.1 to 40 μM or 5 to 60 μM) of compounds or control in fresh medium. HL-60, KG-1 and Jurkat cell lines were plated in 96-multiwell culture plates at 50.000 cells/100 μL per well and treated with different concentrations (from 0.001 to 2 μM) of the compounds described (or control). Cells were plated, in triplicate, at an initial density of 2000 cells/well for GAMG, 4000 cells/well for GL18 and 6000 cells/well for U87MG, in 96-well plates, and allowed to adhere for 18-20 hours. […]
# [2] = tested on: non-neoplastic cell line MCF-10A; assay: Cell viability assay (MTS), MCF-10A; conditions: Homo sapiens, 72 h incubation
# Method: as §1, §2, §3
# [3] = tested on: renal carcinoma cell line 786-O; assay: Cell viability (sulforhodamine B), 786-O; conditions: Homo sapiens, 786-0; Table 5
# Method: (§4) In an embodiment, the antiproliferative activity of the compounds was further determined against renal carcinoma cell lines and non-neoplastic kidney cell line.
# as §2
# (§5) In an embodiment, cell viability assays were performed. MCF-7, Hs578T and MCF-10A cells were plated in triplicate in 96-multiwell culture plates, at 3000 cells per mL, or 5000 cells per mL for MDA-MB-468 (100 μL/well). The cells were then allowed to adhere in complete medium, over a period of 18-20 hours. Cells were subsequently treated with 7 different concentrations (from 0.1 to 40 μM or 5 to 60 μM) of compounds or control in fresh medium. HL-60, KG-1 and Jurkat cell lines were plated in 96-multiwell culture plates at 50.000 cells/100 μL per well and treated with different concentrations (from 0.001 to 2 μM) of the compounds described (or control). Cells were plated, in triplicate, at an initial density of 2000 cells/well for GAMG, 4000 cells/well for GL18 and 6000 cells/well for U87MG, in 96-well plates, and allowed to adhere for 18-20 hours. Cells were then treated with different concentrations of the compounds (0.005 to 100 μM) or with control. A498 and 786-O cells were plated at 2000 cells per mL, Caki-2 cells were plated at 3000 cells per mL and HK2 cells were plated at 2000 cells per mL in triplicate, in 96-multiwell culture plates (100 μL/well), and allowed to adhere over a period of 18-20 hours in complete medium. The cells were then treated with 7 different concentrations (from 0.1 to 40 μM or 5 to 60 μM) of compounds or control in fresh medium. […]
# [4] = tested on: renal carcinoma cell line Caki-2; assay: Cell viability (sulforhodamine B), Caki-2; conditions: Homo sapiens, Table 5
# Method: as §4, §2, §5
# [5] = tested on: non-neoplastic cell line (HK2); assay: Cell viability, HK2; conditions: for pIC50: Table 5, read-out: IC50 HK2; for IC50: Table 6, read-out: IC50 (μM) HK2
# Method: as §4, §2, §5
# [6] = tested on: renal carcinoma cell line A498; assay: Cell viability (sulforhodamine B), A498; conditions: Homo sapiens, Table 5
# Method: as §4, §2, §5
SMILES,pIC50 [1],pIC50 [2],pIC50 [3],pIC50 [4],pIC50 [5],IC50 [5],pIC50 [6]
"COc1ccc(-c2nc3c([nH]2)Cc2cccc(OC)c2O3)c(Br)c1O [MC416, 2-bromo-6-methoxy-3-(5-methoxy-3,9-dihydrochromeno[2,3-]imidazol-2-yl)phenol]",5.98,5.70,5.50,5.59,5.33,4.72 µM,
"COc1cccc2c1Oc1nc(-c3ccc(Br)cc3)[nH]c1C2C1c2cccc(OC)c2Oc2nc(-c3ccc(Br)cc3)[nH]c21 (centres unmarked) [MC421, 2,2′-bis(4-bromophenyl)-5,5′-dimethoxy-1,1,9,9′-tetrahydro-9,9′-bichromeno[2,3-]imidazoles]",6.51,< 4.52,7.11,6.37,5.60,2.49 µM,6.47
"COc1cccc2c1Oc1nc(-c3ccccc3)[nH]c1C2 [MC350, 5-methoxy-2-phenyl-3,9-dihydrochromeno[2,3-d]imidazoles]",6.13,5.07,6.29,6.40,4.67,21.5 µM,6.08
"COc1cccc2c1Oc1nc(-c3ccc(Br)cc3)[nH]c1C2 [MC408, 2-(4-bromophenyl)-5-methoxy-3,9-dihydrochromeno[2,3-d]imidazoles]",6.21,5.52,7.19,7.05,5.46,3.49 µM,6.85
"COc1cccc2c1Oc1nc(-c3ccccc3F)[nH]c1C2 [MC407, 2-(2-fluorophenyl)-5-methoxy-3,9-dihydrochromeno[2,3-d]imidazoles]",6.17,5.41,6.17,6.36,5.99,,5.87
"COc1cccc2c1Oc1nc(-c3ccccc3F)[nH]c1C2C1c2cccc(OC)c2Oc2nc(-c3ccccc3F)[nH]c21 (centres unmarked) [MC369, 2,2′-bis(2-fluorophenyl)-5,5′-dimethoxy-1,1,9,9′-tetrahydro-9,9′-bichromeno[2,3-]imidazoles]",6.59,< 4.70,7.28,6.96,6.08,,
"COc1cccc2c1Oc1nc(-c3ccc(F)cc3)[nH]c1C2 [MC409, 2-(4-fluorophenyl)-5-methoxy-3,9-dihydrochromeno[2,3-d]imidazoles]",6.19,4.85,6.31,6.44,5.46,3.49 µM,6.25
"COc1cccc2c1Oc1nc(-c3ccc(O)cc3)[nH]c1C2 [MC413, 4-(5-methoxy-3,9-dihydrochromeno[2,3-d]imidazol-2-yl)phenol]",5.96,< 4.70,6.14,6.42,4.99,10.3 µM,6.02
"CCOc1ccc(-c2nc3c([nH]2)Cc2cccc(OC)c2O3)cc1 [MC415, 2-(4-ethoxyphenyl)-5-methoxy-3,9-dihydrochromeno[2,3-d]imidazoles]",5.79,5.72,6.66,7.21,5.28,5.24 µM,6.92
"COc1cccc2c1Oc1nc(-c3ccc(F)cc3)[nH]c1C2C1c2cccc(OC)c2Oc2nc(-c3ccc(F)cc3)[nH]c21 (centres unmarked) [MC406, 2,2′-bis(4-fluorophenyl)-5,5′-dimethoxy-1,1,9,9′-tetrahydro-9,9′-bichromeno[2,3-]imidazoles]",6.70,4.90,7.08,6.75,6.51,,5.94
"COc1cccc2c1Oc1nc(-c3cc(F)cc(F)c3O)[nH]c1C2 [MC410, 2,4-difluoro-6-(5-methoxy-3,9-dihydrochromeno[2,3-d]imidazol-2-yl)phenol]",5.45,< 4.52,6.35,5.07,4.64,23.1 µM,
"COc1ccccc1-c1nc2c([nH]1)Cc1cccc(OC)c1O2 [MC411, 5-methoxy-2-(2-methoxyphenyl)-3,9-dihydrochromeno[2,3-]imidazoles]",5.77,5.17,5.43,5.40,5.33,4.73 µM,
